This passage reports EC50 results from patent US11076597B2, “High stress resistant plant growth regulator and preparation method and use thereof” (SHANGHAI INSTITUTES FOR BIOLOGICAL SCIENCES, CHINESE …, priority 2015, dated 2021).

Test [1] addresses T1, PYR1 receptor-HAB1 protein phosphatase complex (Arabidopsis thaliana, UniProt O49686).
T1 construct: made in house; host or cells: E. coli BL21 (DE3)
T1 sequence (O49686 1-191): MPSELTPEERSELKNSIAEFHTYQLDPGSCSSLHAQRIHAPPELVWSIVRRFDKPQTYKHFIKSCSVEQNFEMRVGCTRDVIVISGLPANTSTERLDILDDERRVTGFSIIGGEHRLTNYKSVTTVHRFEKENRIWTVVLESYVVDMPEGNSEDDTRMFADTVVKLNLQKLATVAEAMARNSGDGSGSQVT
T1 sequence (Q9CAJ0 172-511 partner limits assumed): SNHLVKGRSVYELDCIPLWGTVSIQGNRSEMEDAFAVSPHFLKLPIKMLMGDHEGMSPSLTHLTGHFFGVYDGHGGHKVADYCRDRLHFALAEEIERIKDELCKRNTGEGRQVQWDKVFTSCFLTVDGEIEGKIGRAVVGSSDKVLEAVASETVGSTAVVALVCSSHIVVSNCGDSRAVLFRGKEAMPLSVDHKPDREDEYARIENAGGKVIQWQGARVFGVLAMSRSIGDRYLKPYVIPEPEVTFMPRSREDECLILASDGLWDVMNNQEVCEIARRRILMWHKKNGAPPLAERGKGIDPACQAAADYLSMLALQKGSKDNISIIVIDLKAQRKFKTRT
Kind of test: AlphaScreen assay: promotion of PYR1 receptor binding to PP2C protein phosphatase HAB1. As to conditions: 6×His-SUMO-tagged PYR1 (whole coding sequence), Biotin-tagged HAB1 (aa 172-511), 100 nM each, pH 7.4, 1.5 h room temperature. An excerpt: (§1) The construction method of recombinant plasmids for the Arabidopsis thaliana genes PYL1 (amino acid sequence 36-211), PYL2 (amino acid sequence 14-188) with dual tags of 6×His and SUMO sequence and the Arabidopsis thaliana gene HAB1 (amino acid sequence 172-511) with the Biotin tag sequence is described in detail in “A gate-latch-lock mechanism for hormone signaling by abscisic acid receptors” (Nature, Vol 462, 2009). The construction method of recombinant plasmids for PYR1 and PYL7 (whole gene coding sequence) and Soybean GmPYL6 and rice OsPYL2 with dual tags of 6×His and SUMO sequence is the same as that for Arabidopsis PYL2.
(§2) The above recombinant plasmid is transformed into competent cell of E. coli BL21 (DE3) (purchased from NEB company), and inoculated into 200 ml of LB liquid medium containing Amp resistance (purchased from OXOID company) and cultured overnight at 37° C. at 200 rpm; and inoculated into 2 L of LB liquid medium containing Amp resistance at a ratio of 1:50-1:100 for an extended culture, and cultured at 37° C., 200 rpm for 3-4 hours, and at a low temperature of 16° C. until OD600 is about 0.8-1.0. Recombinant plasmids for PYR1/PYL1/PYL2/PYL7/GmPYL6/OsPYL2 with dual tags of 6×His and SUMO sequence were induced overnight with 100 μM of IPTG while HAB1 recombinant plasmid with the Biotin tag sequence was induced simultaneously with 100 μM of IPTG and 40 μM of biotin.
(§3) After 16 hours of induction, the bacterial solution was centrifuged at 4000 rpm for 20 minutes at 4° C. in a low-speed high-capacity centrifuge, and the bacteria cells were collected. Bacteria cells were resuspended in 50 ml of extraction buffer (containing 20 mM Tris, pH 8.0, 200 mM NaCl and 10% (v/v) glycerol) for per 2 L of bacterial solution and then subjected to pressure-breaking at […] and 4° C. for 3-5 times. The broken cells were subjected to ultracentrifugation, centrifuged at 16000 rpm for 30 minutes, and this process was repeated twice. The supernatant was collected and subjected to an affinity chromatography column.
For PYR/PYL proteins with dual tags of 6×His and SUMO sequences, 50 ml of affinity chromatography Ni column (50 ml Ni-NTA column, available from GE) was used. Firstly, the column was equilibrated with 600 ml of 10% buffer B (containing 20 mM Tris, PH 8.0, 200 mM NaCl, 500 mM imidazole and 10% glycerol), and then eluted with 200 ml of 50% buffer B and finally eluted with 100 ml of 100% buffer B. Proteins for crystal analysis were mixed with ulp1 enzyme at a molar ratio of 1000:1 for enzymatic dialysis overnight. The digested proteins were subjected to affinity chromatography on a Ni column once more. The collected solution was subjected to a HiLoad 26/60 Superdex200 gel filtration column (commercially available from GE) and eluted with an elution solution (containing 25 mM Tris, pH 8.0, 200 mM ammonium acetate, 1 mM dithiotreitol and 1 mM EDTA) to further separate and purify the protein.
For a HAB1 protein with a Biotin tag sequence, it was subjected to a 50 ml MBP affinity column (available from GE). The column was firstly equilibrated with 600 ml of 10% buffer C (containing 20 mM Tris, pH 8.0, 200 mM NaCl, 10 mM Maltose and 10% Glycerol), and eluted with 200 ml of 50% buffer C and finally eluted with 100 ml of 100% buffer C. […]
For orientation: Alpha assays give light when donor and acceptor beads are brought close together.

In test [2] the target is T2, PYL7 receptor-HAB1 protein phosphatase complex (Arabidopsis thaliana, UniProt Q1ECF1).
T2 construct: made in house; host or cells: E. coli BL21 (DE3)
T2 sequence (Q1ECF1 1-211): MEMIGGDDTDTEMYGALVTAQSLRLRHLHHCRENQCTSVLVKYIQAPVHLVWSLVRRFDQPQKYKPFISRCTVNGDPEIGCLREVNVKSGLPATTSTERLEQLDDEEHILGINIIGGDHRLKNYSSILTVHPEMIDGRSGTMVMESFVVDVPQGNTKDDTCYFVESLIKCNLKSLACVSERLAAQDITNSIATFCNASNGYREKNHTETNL
T2 sequence (Q9CAJ0 172-511 partner limits assumed): T1 sequence (Q9CAJ0 172-511 partner limits assumed)
The test can be described thus: AlphaScreen assay: promotion of PYL7 receptor binding to PP2C protein phosphatase HAB1.
From the text: as §1, §2
as §3, with “column. […]” for “column.”

Setting [3] is: FIG. 2d, 6×His-SUMO-tagged PYL7 (whole coding sequence), Biotin-tagged HAB1 (aa 172-511), 100 nM each, pH 7.4, 1.5 h room temperature, read-out: EC50.

Read-outs that look alike come from different tables or passages of the source.

By EC50 is commonly meant the concentration at which the effect is half-maximal. `CC1=CC(=O)CC(C)(C)[C@@]1(O)/C=C/C(C)=C\C(=O)O` [ABA, Abscisic Acid, reference compound]: the EC50 in test [1] (EC50, FIG. 2a) was determined as 3570 nM; in test [1] (EC50, FIG. 2h) it was 4220 nM; in test [2], 1160 nM.

Take `CCCN1C(=O)OC(C)c2cc(NS(=O)(=O)Cc3c(F)c(F)c(C)c(F)c3F)ccc21` (stereo not shown) [Compound 0224]: the EC50 in test [1] (FIG. 2a, read-out: EC50) is 90.1 nM; in test [2] (setting [3]), 120 nM.

Consider `CCCN1C(=O)OC(C)(C)c2cc(NS(=O)(=O)Cc3c(F)c(F)c(C)c(F)c3F)ccc21` [Compound 0304], for which the 50% effective concentration (EC50) in test [1] (FIG. 2a, read-out: EC50) worked out at 148 nM; in test [2] (setting [3]), 120 nM.
